In patent publication EP1203770A1 (priority 1992, dated 1994):
Read-outs that look alike come from different tables or passages of the source.

Biological target: T1, HIV-1 protease (Human immunodeficiency virus type 1 group M subtype B, UniProt P04585)
T1 construct: The protease (or proteinase), consisting of only 99 amino acids, is among the smallest enzymes known
Assay: In vitro HIV protease inhibitory assay (HIV Protease FITC Assay)
Format: biochemical
Conditions: for inhibition at 0.123 µM / inhibition at 0.37 µM / inhibition at 1.1 µM / inhibition at 3.3 µM / inhibition at 10 µM / inhibition at 30 µM: read-out: HIV-1 Protease % Inhib
Outline: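 Percent inhibition was read as fluorescence after avidin-bead capture and filtration separated FITC cleavage product from biotinylated substrate. Enzyme and substrate reacted 1 h, RT, dark, at pH 5.5 (0.1 M sodium acetate, 1.0 M NaCl, 0.05% NP-40).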

Row | Structure (SMILES) | inhibition at 0.123 µM (HIV-1 Dose 0.123 uM) [%] | inhibition at 0.37 µM (HIV-1 Dose 0.370 uM) [%] | inhibition at 1.1 µM (HIV-1 Dose 1.100 uM) [%] | inhibition at 3.3 µM (HIV-1 Dose 3.300 uM) [%] | inhibition at 10 µM (HIV-1 Dose 10.000 uM) [%] | inhibition at 30 µM (HIV-1 Dose 30.000 uM) [%] | Ki (read-out: HIV-1 FITC Ki) [nM] | other results
1 | CCCCC1(Cc2ccccc2)CC(O)=C(C(CCc2ccccc2)c2ccccc2)C(=O)O1 (stereo not drawn) [Example 218, 2H-Pyran-2-one, 6-butyl-5,6-dihydro-3-(1,3-diphenylpropyl)-4-hydroxy-6-phenylmethyl-] | < 10 | < 10 | 21.2 | 46 | 59.3 | 58.2 |  | 
2 | C=CC(C1=C(O)CC(CCCC)(Cc2ccccc2)OC1=O)c1ccccc1 (stereo not drawn) [Example 219, 2H-Pyran-2-one, 6-butyl-5,6-dihydro-4-hydroxy-6-phenylmethyl-3-(1-phenyl-2-propenyl)-] | < 10 | < 10 | 35.3 | 65.6 | 79.7 | 90.2 |  | 
3 | CCCCC1(Cc2ccccc2)CC(O)=C(C(CC)c2ccccc2)C(=O)O1 (stereo not drawn) [Example 220, 2H-Pyran-2-one, 6-butyl-5,6-dihydro-4-hydroxy-6-phenylmethyl-3-(1-phenylpropyl)-] | < 10 | < 10 | 21.3 | 51.6 | 68.4 | 62.2 |  | 
4 | CCC(Cc1ccccc1)c1cc(O)c(C(c2cccc(NC(=O)[C@H](C)NC(=O)OC(C)(C)C)c2)C2CC2)c(=O)o1 (stereo partly drawn) [Example 221, 3-(α-Cyclopropyl-meta-(tert-butyloxycarbonyl-L-alanylamino)benzyl)-6-(α-ethylphenethyl)-4-hydroxy-2H-pyran-2-one] | 43.1 | 72.1 | 87.3 | 102 | 108 | 101 | 14.6 | 
5 | CCC(Cc1ccccc1)c1cc(O)c(C(c2cccc(NC(=O)[C@H](Cc3cn(S(=O)(=O)c4ccc(C)cc4)cn3)NC(=O)OC(C)(C)C)c2)C2CC2)c(=O)o1 (stereo partly drawn) [Example 222, 3-(α-Cyclopropyl-meta-(N-α-tert-butyloxycarbonyl-N-im-p-toluenesulfonyl-L-histidylamino)benzyl)-6-(α-ethylphenethyl)-4-hydroxy-2H-pyran-2-one] | 19 | 51.7 | 75.8 | 91 | 98.3 | 95.8 | 18.5 | 
6 | CCC(Cc1ccccc1)c1cc(O)c(C(c2cccc(NS(=O)(=O)c3ccc(Cl)cc3)c2)C2CC2)c(=O)o1 (stereo not drawn) [Example 224, 3-(α-Cyclopropyl-meta-(4-chlorophenylsulfonylamino)benzyl)-6-(α-ethylphenethyl)-4-hydroxy-2H-pyran-2-one] |  |  |  |  |  |  |  | Ki: 14.7 nM; inhibition at 0.123 µM: 46.9%; inhibition at 0.37 µM: 76.9%; inhibition at 1.1 µM: 99.6%; inhibition at 3.3 µM: 97.1%; inhibition at 10 µM: 110%; inhibition at 30 µM: 105%
7 | CCC(Cc1ccccc1)c1cc(O)c(C(c2cccc(NC(=O)CC[C@H](NC(=O)OCc3ccccc3)C(=O)OCc3ccccc3)c2)C2CC2)c(=O)o1 (stereo partly drawn) [Example 225, 3-(α-Cyclopropyl-meta-(N-benzyloxycarbonyl-O-α-benzyl-L-glutamylamino)benzyl)-6-(α-ethylphenethyl)-4-hydroxy-2H-pyran-2-one] | < 10 | < 10 | < 10 | 21 | 30.6 | 35.5 |  | 
8 | CCC(Cc1ccccc1)c1cc(O)c(C(c2cccc(NC(=O)[C@H](Cc3c[nH]cn3)NC(=O)OC(C)(C)C)c2)C2CC2)c(=O)o1 (stereo partly drawn) [Example 226, 3-(α-Cyclopropyl-meta-(N-α-tert-butyloxycarbonyl-L-histidylamino)benzyl)-6-(α-ethylphenethyl)-4-hydroxy-2H-pyran-2-one] |  |  |  |  |  |  | 4 | inhibition at 0.123 µM: 73.4%; inhibition at 0.37 µM: 93.9%; inhibition at 1.1 µM: 106%; inhibition at 3.3 µM: 104%; inhibition at 10 µM: 101%; inhibition at 30 µM: 98.3%
9 | CCC(Cc1ccccc1)c1cc(O)c(C(c2cccc(NC(=O)c3ccc(C#N)cc3)c2)C2CC2)c(=O)o1 (stereo not drawn) [Example 227] | < 10 | 19.6 | 49.2 | 80.2 | 89.8 | 85.4 |  | 
10 | CCC(Cc1ccccc1)c1cc(O)c(C(c2cccc(NS(=O)(=O)c3cccc4cccnc34)c2)C2CC2)c(=O)o1 (stereo not drawn) [Example 229, 3-(α-Cyclopropyl-meta-(8-quinolinesulfonylamino)benzyl)-6-(α-ethylphenethyl)-4-hydroxy-2H-pyran-2-one] | 52.2 | 95.9 | 106 | 106 | 113 | 102 | 3.5 | 
11 | CCC(Cc1ccccc1)c1cc(O)c(C(c2cccc(NC(=O)CCn3ccc4ccccc43)c2)C2CC2)c(=O)o1 (stereo not drawn) [Example 230, 3-(α-Cyclopropyl-meta-(3-(1-indolyl)propanoylamino)benzyl)-6-(α-ethylphenethyl)-4-hydroxy-2H-pyran-2-one] | < 10 | 15.3 | 48.6 | 71.3 | 91.1 | 85.3 |  | 
12 | CCC(Cc1ccccc1)c1cc(O)c(C(c2cccc(NC(=O)Cc3ccccn3)c2)C2CC2)c(=O)o1 (stereo not drawn) [Example 231, 3-(α-Cyclopropyl-meta-(2-pyridylacetylamino)benzyl)-6-(α-ethylphenethyl)-4-hydroxy-2H-pyran-2-one] | 16.5 | 57.4 | 77.7 | 98.9 | 113 | 109 | 52.4 | 
13 | COCOCc1ccc(C(C2=C(O)CC(CCc3ccccc3)(CC(C)C)OC2=O)C2CC2)s1 (stereo not drawn) [Example 232, 2H-Pyran-2-one, 3-(α-cyclopropyl-[5-(methoxymethoxy-methyl)-thiophen-2-yl]-methyl)-5,6-dihydro-4-hydroxy-6-(2-methylpropyl)-6-(2-phenylethyl)-] |  |  |  |  |  |  | 76 | HIV-1 Protease % Inhib (HIV-1 Dose 0.123 uM): 10.57%; HIV-1 Protease % Inhib (HIV-1 Dose 0.370 uM): 36.97%; HIV-1 Protease % Inhib (HIV-1 Dose 1.100 uM): 73.74%; HIV-1 Protease % Inhib (HIV-1 Dose 3.300 uM): 93.56%; HIV-1 Protease % Inhib (HIV-1 Dose 10.000 uM): 103.56%; HIV-1 Protease % Inhib (HIV-1 Dose 30.000 uM): 98.87%
14 | C=CC(C1=C(O)CC(CCc2ccccc2)(CC(C)C)OC1=O)c1ccccc1 (stereo not drawn) [Example 233, 2H-Pyran-2-one, 5,6-dihydro-4-hydroxy-6-(2-methylpropyl)-6-(2-phenylethyl)-3-(1-phenyl-2-propenyl)-] | < 10 | 28.9 | 64.9 | 83.1 | 93.7 | 59.4 | 24.8 | 
15 | CCC(C1=C(O)CC(CCc2ccccc2)(CC(C)C)OC1=O)c1ccccc1 (stereo not drawn) [Example 234, 2H-Pyran-2-one, 5,6-dihydro-4-hydroxy-6-(2-methylpropyl)-6-(2-phenylethyl)-3-(1-phenylpropyl)-] | < 10 | 33.4 | 61.6 | 81.1 | 83 | 71.1 | 39.4 | 
